From ChEMBL document CHEMBL5356965, “Discovery and biological evaluation of novel dual PTP1B and ACP1 inhibitors for the treatment of insulin resistance” (Bioorg Med Chem, 2024)

Tests used:
[1] = biological target: T1, Tyrosine-protein phosphatase non-receptor type 2 (Homo sapiens, UniProt P17706)
T1 sequence (P17706 whole entry): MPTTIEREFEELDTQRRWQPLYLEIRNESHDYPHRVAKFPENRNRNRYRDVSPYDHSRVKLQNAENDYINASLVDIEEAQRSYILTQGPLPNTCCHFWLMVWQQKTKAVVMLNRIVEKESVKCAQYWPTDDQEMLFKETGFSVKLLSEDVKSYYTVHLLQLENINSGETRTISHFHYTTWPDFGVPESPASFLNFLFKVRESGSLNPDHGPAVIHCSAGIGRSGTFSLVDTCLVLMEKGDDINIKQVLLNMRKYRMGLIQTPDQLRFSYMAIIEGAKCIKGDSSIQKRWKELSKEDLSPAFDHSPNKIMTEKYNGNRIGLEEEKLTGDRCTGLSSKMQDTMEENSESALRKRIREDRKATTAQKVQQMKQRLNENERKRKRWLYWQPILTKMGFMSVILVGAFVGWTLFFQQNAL
Description: Inhibition of recombinant human TCPTP

[2] = biological target: T2, Receptor-type tyrosine-protein phosphatase C (Homo sapiens, UniProt P08575)
T2 sequence (P08575 whole entry): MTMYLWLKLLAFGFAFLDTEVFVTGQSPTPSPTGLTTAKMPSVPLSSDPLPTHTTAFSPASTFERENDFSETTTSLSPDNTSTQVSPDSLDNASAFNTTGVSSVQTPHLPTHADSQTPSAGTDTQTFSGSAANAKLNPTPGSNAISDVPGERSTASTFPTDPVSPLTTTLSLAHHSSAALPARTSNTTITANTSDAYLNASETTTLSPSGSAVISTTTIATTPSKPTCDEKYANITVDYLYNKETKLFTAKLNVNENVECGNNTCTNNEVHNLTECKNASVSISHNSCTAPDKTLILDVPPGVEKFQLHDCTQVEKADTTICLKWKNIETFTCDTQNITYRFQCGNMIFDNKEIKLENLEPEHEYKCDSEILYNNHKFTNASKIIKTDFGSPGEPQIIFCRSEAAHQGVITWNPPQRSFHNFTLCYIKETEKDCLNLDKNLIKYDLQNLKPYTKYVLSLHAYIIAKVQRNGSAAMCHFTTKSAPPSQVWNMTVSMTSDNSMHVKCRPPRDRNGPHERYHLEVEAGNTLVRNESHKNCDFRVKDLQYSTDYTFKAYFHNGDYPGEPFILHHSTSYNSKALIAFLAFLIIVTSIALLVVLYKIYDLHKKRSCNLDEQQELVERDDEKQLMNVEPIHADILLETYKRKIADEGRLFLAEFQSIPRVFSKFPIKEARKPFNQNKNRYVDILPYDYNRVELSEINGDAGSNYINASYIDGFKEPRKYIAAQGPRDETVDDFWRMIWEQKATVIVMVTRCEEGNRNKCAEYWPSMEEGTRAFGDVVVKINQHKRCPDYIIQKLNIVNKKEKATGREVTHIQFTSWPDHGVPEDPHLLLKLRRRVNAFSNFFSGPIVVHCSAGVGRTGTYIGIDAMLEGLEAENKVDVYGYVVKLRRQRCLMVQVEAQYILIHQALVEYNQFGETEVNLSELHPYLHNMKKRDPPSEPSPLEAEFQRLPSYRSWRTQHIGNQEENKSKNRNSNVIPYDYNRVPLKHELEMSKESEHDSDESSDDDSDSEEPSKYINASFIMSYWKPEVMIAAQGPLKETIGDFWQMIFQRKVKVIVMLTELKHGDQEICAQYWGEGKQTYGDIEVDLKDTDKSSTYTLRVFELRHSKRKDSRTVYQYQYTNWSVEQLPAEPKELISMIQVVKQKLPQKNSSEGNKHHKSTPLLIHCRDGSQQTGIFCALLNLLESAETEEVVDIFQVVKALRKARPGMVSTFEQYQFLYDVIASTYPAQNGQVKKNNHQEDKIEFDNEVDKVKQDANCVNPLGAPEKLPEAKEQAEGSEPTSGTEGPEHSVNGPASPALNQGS
Description: Inhibition of recombinant human CD45

[3] = biological target: T3, Low molecular weight phosphotyrosine protein phosphatase (Homo sapiens, UniProt P24666); experiment: Inhibition of recombinant human ACP1 using pNPP as substrate preincubated with compound for 10 mins followed by substrate addition and measured by absorbance based assay
T3 sequence (P24666 whole entry): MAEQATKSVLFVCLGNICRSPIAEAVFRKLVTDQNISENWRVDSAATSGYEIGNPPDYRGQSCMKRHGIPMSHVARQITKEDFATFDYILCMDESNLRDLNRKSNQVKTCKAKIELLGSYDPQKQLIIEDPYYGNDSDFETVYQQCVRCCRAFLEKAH

[4] = biological target: T4, Tyrosine-protein phosphatase non-receptor type 1 (Homo sapiens, UniProt P18031); experiment: Inhibition of recombinant human PTP1B using pNPP as substrate preincubated with compound for 10 mins followed by substrate addition and measured by absorbance based assay
T4 sequence (P18031 whole entry): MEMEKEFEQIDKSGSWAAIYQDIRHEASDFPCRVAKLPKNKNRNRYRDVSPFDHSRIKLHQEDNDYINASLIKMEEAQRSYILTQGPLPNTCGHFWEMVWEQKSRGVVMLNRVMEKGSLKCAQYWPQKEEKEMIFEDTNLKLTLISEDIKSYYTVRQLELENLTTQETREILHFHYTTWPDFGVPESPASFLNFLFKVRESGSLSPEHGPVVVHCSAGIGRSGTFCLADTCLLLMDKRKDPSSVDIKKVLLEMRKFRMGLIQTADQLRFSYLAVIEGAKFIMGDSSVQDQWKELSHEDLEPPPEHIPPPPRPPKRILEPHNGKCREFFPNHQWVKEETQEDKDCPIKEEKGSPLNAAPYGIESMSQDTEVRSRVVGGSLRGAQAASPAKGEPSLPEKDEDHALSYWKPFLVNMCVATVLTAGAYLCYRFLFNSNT

| IC50 [1] | IC50 [2] | IC50 [3] | IC50 [4] | SMILES |
| --- | --- | --- | --- | --- |
| 12.7 µM | > 40 µM | 5.2 µM | 8.2 µM | COc1cc(/C=C2/NC(=O)N(Cc3ccccc3)C2=O)cc(Cl)c1OCc1cccc(C(=O)O)c1 |
| 8.3 µM | > 40 µM |  |  | COc1cc(/C=C2/NC(=O)N(Cc3ccc(C)cc3)C2=O)ccc1OCc1cccc(C(=O)O)c1 |
